Patent US20110288052A1, “NOVEL COMPOUNDS, PHARMACEUTICAL COMPOSITIONS CONTAINING SAME, AND METHODS OF USE FOR SAME” (priority 2008, published 2011)
Values after ≈ are worked out from the molar mass of the structure shown.

Tested on: MCF-7 human breast cancer cells
Test: XTT cytotoxicity assay, MCF-7 (M)
Format: cell-based
Conditions: MCF7, MCF-7, 72 hours
Description: XTT Cytotoxicity Assay The XTT assay is a non-radioactive alternative for the [^51Cr] release cytotoxicity assay. XTT is a tetrazolium salt that is reduced to a formazan dye only by metabolically active, viable cells. The reduction of XTT is measured spectrophotometrically as OD490-OD650. To measure the cytotoxicity of specific compounds against cancer cells, 9×10^3 MCF-7 human breast cancer cells (shown in the tables as “(M)”), obtained from the American Type Culture Collection are plated per well in 96 well plates in DMEM medium with 10% fetal bovine serum, insulin, penicillin, and streptomycin. Following overnight culture at 37° C. and 5% CO2, the compounds to be tested, dissolved in DMSO, are added to the wells in 1 μl volume at the following concentrations: 80, 40, 20, 10, 5, 2.5, 1.25, and 0.625 μg/ml in triplicate. Additional concentrations are tested if required. 1 μl of DMSO is added to triplicate wells are the vehicle control. C75 is run at 40, 20, […], and 5 μg/ml in triplicate as positive controls. After 72 hours of incubation, cells are incubated for 4 hours with the XTT reagent as per manufacturer's instructions (Cell Proliferation Kit II (XTT) Roche). Plates are read at OD490 and OD650 on a Molecular Devices SpectraMax Plus Spectrophotometer. Three wells containing the XTT reagent without cells serve as the plate blank. XTT data are reported as OD490-OD650. Averages and standard error of the mean are computed using SOFTmax Pro software (Molecular Dynamics). The IC50 for the compounds is defined as the concentration of drug leading to a 50% reduction in OD490-OD650 compared to controls. The OD490-OD650 are computed by the SOFTmax PRO software (Molecular Devices) for each compound concentration. IC50 is calculated by linear regression, plotting the FAS activity as percent of control versus drug concentrations. Linear regression, best-fit line, r^2, and 95% confidence intervals are determined using Prism Version 3.0 (Graph Pad Software).
With `CCCCCCCCC1(C)SC(=O)C=C1OCC(=O)Nc1ccc(C(=O)OC)cc1` (stereo not shown) the IC50 was 6.5 µg/mL (≈ 15 µM).
In the case of `CCCCCCCCC1(C)SC(=O)C=C1OCC(=O)N1CCN(c2ccc(C(F)(F)F)cc2)CC1` (stereo not shown), the IC50 is reported as 50.7 µg/mL (≈ 98.9 µM).
Work on `CCCCCCCCC1(C)SC(=O)C=C1OCC(=O)N1CCN(c2ccc(Cl)cc2)CC1` (stereo not shown) yielded an IC50 of 35.7 µg/mL (≈ 74.5 µM).
Compound `CCCCCCCCC1(C)SC(=O)C=C1OCC(=O)N1CCN(c2ccc(OC)cc2)CC1` (stereo not shown) has an IC50 of over 80 µg/mL.
`CCCCCCCCC1(C)SC(=O)C=C1OCC(=O)N1CCN(Cc2ccc(OC)cc2)CC1` (stereo not shown) showed an IC50 of 13.6 µg/mL (≈ 27.8 µM).

Tested on: OVCAR3 cells
Test: XTT cytotoxicity assay, OVCAR3 (OV)
Format: cell-based
Conditions: Homo sapiens, OVCAR-3
Description: (§1) XTT Cytotoxicity Assay The XTT assay is a non-radioactive alternative for the [^51Cr] release cytotoxicity assay. XTT is a tetrazolium salt that is reduced to a formazan dye only by metabolically active, viable cells. The reduction of XTT is measured spectrophotometrically as OD490-OD650. To measure the cytotoxicity of specific compounds against cancer cells, 9×10^3 MCF-7 human breast cancer cells (shown in the tables as “(M)”), obtained from the American Type Culture Collection are plated per well in 96 well plates in DMEM medium with 10% fetal bovine serum, insulin, penicillin, and streptomycin. Following overnight culture at 37° C. and 5% CO2, the compounds to be tested, dissolved in DMSO, are added to the wells in 1 μl volume at the following concentrations: 80, 40, 20, 10, 5, 2.5, 1.25, and 0.625 μg/ml in triplicate. Additional concentrations are tested if required. 1 μl of DMSO is added to triplicate wells are the vehicle control. C75 is run at 40, 20, […], and 5 μg/ml in triplicate as positive controls. After 72 hours of incubation, cells are incubated for 4 hours with the XTT reagent as per manufacturer's instructions (Cell Proliferation Kit II (XTT) Roche). Plates are read at OD490 and OD650 on a Molecular Devices SpectraMax Plus Spectrophotometer. Three wells containing the XTT reagent without cells serve as the plate blank. XTT data are reported as OD490-OD650. Averages and standard error of the mean are computed using SOFTmax Pro software (Molecular Dynamics). The IC50 for the compounds is defined as the concentration of drug leading to a 50% reduction in OD490-OD650 compared to controls. The OD490-OD650 are computed by the SOFTmax PRO software (Molecular Devices) for each compound concentration. IC50 is calculated by linear regression, plotting the FAS activity as percent of control versus drug concentrations. Linear regression, best-fit line, r^2, and 95% confidence intervals are determined using Prism Version 3.0 (Graph Pad Software). The test was also run against OVCAR3 cells (“OV”), and HCT116 cells (“H”).
Work on `CCCCCCCCC1(C)SC(=O)C=C1OCC(=O)N1CCN(c2ccc(C(F)(F)F)cc2)CC1` (stereo not shown) yielded an IC50 of over 80 µg/mL.
`CCCCCCCCC1(C)SC(=O)C=C1OCC(=O)N1CCN(c2ccc(Cl)cc2)CC1` (stereo not shown) showed an IC50 of 24.4 µg/mL (≈ 50.9 µM).
In the case of `CCCCCCCCC1(C)SC(=O)C=C1OCC(=O)N1CCN(c2ccc(OC)cc2)CC1` (stereo not shown), the IC50 is reported as over 80 µg/mL.
In the case of `CCCCCCCCC1(C)SC(=O)C=C1OCC(=O)N1CCN(Cc2ccc(OC)cc2)CC1` (stereo not shown), the IC50 is reported as 79.8 µg/mL (≈ 163 µM).

Same assay, conditions: Homo sapiens, OVCAR-3, unit given as ml
With `CCCCCCCCC1(C)SC(=O)C=C1OCC(=O)Nc1ccc(C(=O)OC)cc1` (stereo not shown) the IC50 was 12.7 µg/mL (≈ 29.3 µM).

Tested on: HCT116 cells
Test: XTT cytotoxicity assay, HCT116 (H)
Format: cell-based
Conditions: Homo sapiens, HCT-116
Description: as §1
With `CCCCCCCCC1(C)SC(=O)C=C1OCC(=O)Nc1ccc(C(=O)OC)cc1` (stereo not shown) the IC50 was 6.3 µg/mL (≈ 14.5 µM).
`CCCCCCCCC1(C)SC(=O)C=C1OCC(=O)N1CCN(c2ccc(C(F)(F)F)cc2)CC1` (stereo not shown) gave an IC50 of over 80 µg/mL.
`CCCCCCCCC1(C)SC(=O)C=C1OCC(=O)N1CCN(c2ccc(Cl)cc2)CC1` (stereo not shown) showed an IC50 of 9.7 µg/mL (≈ 20.2 µM).
With `CCCCCCCCC1(C)SC(=O)C=C1OCC(=O)N1CCN(c2ccc(OC)cc2)CC1` (stereo not shown) the IC50 was over 80 µg/mL.
In the case of `CCCCCCCCC1(C)SC(=O)C=C1OCC(=O)N1CCN(Cc2ccc(OC)cc2)CC1` (stereo not shown), the IC50 is reported as 69.7 µg/mL (≈ 143 µM).

Tested on: MCF-7 human breast cancer cells (fatty acid oxidation pathway activity)
Test: Fatty acid oxidation ([14C]palmitate to acid soluble products)
Format: cell-based
Conditions: Homo sapiens, MCF7; at 0.098 μg/ml; read-out: FAO Max
Description: Measurement of Fatty Acid Oxidation and Determination of SC150 of Compounds This assay measures the degradation of [^14C]palmitate into acid soluble products and is a measure of fatty acid oxidation pathway activity in vitro. It is utilized to measure fatty acid oxidation in vitro. MCF-7 human breast cancer cells cultured as above, are plated at 2.5×10^5 cells per well in 24-well plates. Following overnight incubation, the compounds to be tested, solubilized in DMSO, are added at […], 0.39, 1.56, 6.25, 25, and 100 μg/ml in triplicate, with lower concentrations tested if necessary. DMSO is added to triplicate wells for a vehicle control. C75 is run at 5 and 10 μg/ml in triplicate as positive controls. After 1 hour of incubation, medium is removed 100 uM of [^14C] palmitate in cyclodextran and 200 uM carnitine in serum free medium (250 μl volume) is added to each well. After 30 minutes of additional incubation, the reaction is stopped by addition of 2.6N HClO4. Contents of each well are transferred to 1.5 ml Eppendorf tubes and 4N KOH is added. The tubes are incubated for 30 minutes at 60° C. 1 M NaAcetate and 3N H2SO4 is added to each tube and vortexed. The tubes are centrifuged at 1000 rpm for 5 minutes at RT. 250 μl of the supernatant is transferred to a 2 ml eppendorf tube. To each tube is added: 938 μl of chloroform:methanol (1:1), 468 μl chloroform and 281 μl of deionized water. The tubes are vortexed and centrifuged at 1000 rpm for 5 minutes at RT. 750 μl of the upper phase is transferred into a scintillation vial 5 ml of scintillant is added and vials are counted for 1 minute for ^14C. The Beckman Scintillation counter calculates the average cpm values for triplicates. The SC150 for the compounds is defined as the concentration of drug leading to a 150% increase in production of acid soluble products of [^14C] palmitate as compared to untreated controls. This is determined by plotting the average cpm for each inhibitor concentration tested, performing linear regression and computing the best-fit line, r^2 values, and 95% confidence intervals. The average cpm values are computed by the Beckman scintillation counter (Model LS6500) for each compound concentration. Computation of linear regression, best-fit line, r^2, and 95% confidence intervals are calculated using Prism Version 3.0 (Graph Pad Software). If a compound fails to achieve this 150% threshold it is considered negative. The maximum value achieved is also reported (FAO Max).
`CCCCCCCCC1(C)SC(=O)C=C1OCC(=O)N1CCN(c2ccc(Cl)cc2)CC1` (stereo not shown) showed an Emax at 0.098 µg/mL of 79%.
`CCCCCCCCC1(C)SC(=O)C=C1OCC(=O)N1CCN(c2ccc(OC)cc2)CC1` (stereo not shown) showed an Emax at 0.098 µg/mL of 53%.
For `CCCCCCCCC1(C)SC(=O)C=C1OCC(=O)N1CCN(Cc2ccc(OC)cc2)CC1` (stereo not shown), the Emax at 0.098 µg/mL was 83%.

Same assay, conditions: Homo sapiens, MCF7; at 1.56 μg/ml; read-out: FAO Max
In the case of `CCCCCCCCC1(C)SC(=O)C=C1OCC(=O)N1CCN(c2ccc(C(F)(F)F)cc2)CC1` (stereo not shown), the Emax at 1.56 µg/mL is reported as 118%.

Same assay, conditions: Homo sapiens, MCF7; at 6.25 μg/ml; read-out: FAO Max
`CCCCCCCCC1(C)SC(=O)C=C1OCC(=O)Nc1ccc(C(=O)OC)cc1` (stereo not shown) showed an Emax at 6.25 µg/mL of 126%.

Same assay, conditions: concentration leading to 150% of control acid soluble products; Neg = threshold not reached
With `CCCCCCCCC1(C)SC(=O)C=C1OCC(=O)Nc1ccc(C(=O)OC)cc1` (stereo not shown) the “FAO SC 150” value was “Neg”.

Tested on: not listed separately
Test: Solubility problem noted during the assays
Format: physicochemical
Conditions: noted under the 14C column, unit inferred; read-out: Sol Prob (solubility problem at concentration)
In the case of `CCCCCCCCC1(C)SC(=O)C=C1OCC(=O)Nc1ccc(C(=O)OC)cc1` (stereo not shown), the solubility is reported as 80 µg/mL (≈ 185 µM).
